{"source": "PubChem BioAssay (NCI)", "assay_in_all_cases": "NCI-60 cell line screen, 48 h", "key": {"A549 NSCLC": {"tested_on": "A549 NSCLC"}, "HCT-116 colon": {"tested_on": "HCT-116 colon"}, "MALME-3M melanoma": {"tested_on": "MALME-3M melanoma"}, "DU-145 prostate": {"tested_on": "DU-145 prostate"}, "EKVX NSCLC": {"tested_on": "EKVX NSCLC"}, "HOP-92 NSCLC": {"tested_on": "HOP-92 NSCLC"}, "ACHN renal": {"tested_on": "ACHN renal"}, "BT-549 breast": {"tested_on": "BT-549 breast"}, "HT29 colon": {"tested_on": "HT29 colon"}, "MOLT-4 leukemia": {"tested_on": "MOLT-4 leukemia"}, "RXF 393 renal": {"tested_on": "RXF 393 renal"}, "T-47D breast": {"tested_on": "T-47D breast"}, "NCI-H23 lung": {"tested_on": "NCI-H23 lung"}, "SN12C renal": {"tested_on": "SN12C renal"}, "786-0 renal": {"tested_on": "786-0 renal"}, "OVCAR-8 ovarian": {"tested_on": "OVCAR-8 ovarian"}, "MCF7 breast": {"tested_on": "MCF7 breast"}, "SW-620 colon": {"tested_on": "SW-620 colon"}, "SNB-19 CNS": {"tested_on": "SNB-19 CNS"}, "MDA-MB-231 breast": {"tested_on": "MDA-MB-231 breast"}, "HCT-15 colon": {"tested_on": "HCT-15 colon"}, "RPMI-8226 leukemia": {"tested_on": "RPMI-8226 leukemia"}, "PC-3 prostate": {"tested_on": "PC-3 prostate"}, "HOP-62 NSCLC": {"tested_on": "HOP-62 NSCLC"}, "IGROV1 ovarian": {"tested_on": "IGROV1 ovarian"}, "K-562 leukemia": {"tested_on": "K-562 leukemia"}, "SR leukemia": {"tested_on": "SR leukemia"}, "M14 melanoma": {"tested_on": "M14 melanoma"}, "NCI-H522 lung": {"tested_on": "NCI-H522 lung"}, "SK-OV-3 ovarian": {"tested_on": "SK-OV-3 ovarian"}}, "note": "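Cells were grown in 96-well plates and exposed to each compound for 48 hours at five concentrations; endpoints were interpolated linearly between bracketing concentrations, or set to the highest concentration if not reached. GI50: concentration for 50% inhibition of growth. TGI denotes the concentration required for complete inhibition of growth.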"}
{"smiles": "CC(C)NC(=O)c1cc(-c2ccc(NC(=O)Nc3ccc(N4CCN(C)CC4)c(C(F)(F)F)c3)cc2)nc2cccnc12", "values": [{"measurement": "TGI", "setting": "A549 NSCLC", "value": 12800, "unit": "nM"}, {"measurement": "GI50", "setting": "HCT-116 colon", "value": 2060, "unit": "nM"}, {"measurement": "TGI", "setting": "HCT-116 colon", "value": 3920, "unit": "nM"}, {"measurement": "GI50", "setting": "MALME-3M melanoma", "value": 1650, "unit": "nM"}, {"measurement": "TGI", "setting": "MALME-3M melanoma", "value": 3320, "unit": "nM"}, {"measurement": "GI50", "setting": "DU-145 prostate", "value": 2180, "unit": "nM"}, {"measurement": "TGI", "setting": "DU-145 prostate", "value": 4150, "unit": "nM"}, {"measurement": "GI50", "setting": "EKVX NSCLC", "value": 2190, "unit": "nM"}, {"measurement": "TGI", "setting": "EKVX NSCLC", "value": 4300, "unit": "nM"}, {"measurement": "GI50", "setting": "HOP-92 NSCLC", "value": 980, "unit": "nM"}, {"measurement": "TGI", "setting": "HOP-92 NSCLC", "value": 2940, "unit": "nM"}, {"measurement": "GI50", "setting": "ACHN renal", "value": 2030, "unit": "nM"}, {"measurement": "TGI", "setting": "ACHN renal", "value": 3740, "unit": "nM"}, {"measurement": "GI50", "setting": "BT-549 breast", "value": 1370, "unit": "nM"}, {"measurement": "TGI", "setting": "BT-549 breast", "value": 6310, "unit": "nM"}, {"measurement": "GI50", "setting": "HT29 colon", "value": 1950, "unit": "nM"}, {"measurement": "TGI", "setting": "HT29 colon", "value": 3980, "unit": "nM"}, {"measurement": "GI50", "setting": "MOLT-4 leukemia", "value": 1050, "unit": "nM"}, {"measurement": "TGI", "setting": "MOLT-4 leukemia", "value": 4190, "unit": "nM"}, {"measurement": "GI50", "setting": "RXF 393 renal", "value": 1070, "unit": "nM"}, {"measurement": "TGI", "setting": "RXF 393 renal", "value": 2890, "unit": "nM"}, {"measurement": "GI50", "setting": "T-47D breast", "value": 1710, "unit": "nM"}, {"measurement": "TGI", "setting": "T-47D breast", "value": 31000, "unit": "nM"}, {"measurement": "GI50", "setting": "NCI-H23 lung", "value": 2230, "unit": "nM"}, {"measurement": "TGI", "setting": "NCI-H23 lung", "value": 4440, "unit": "nM"}, {"measurement": "GI50", "setting": "SN12C renal", "value": 1810, "unit": "nM"}, {"measurement": "TGI", "setting": "SN12C renal", "value": 3530, "unit": "nM"}, {"measurement": "GI50", "setting": "786-0 renal", "value": 1650, "unit": "nM"}, {"measurement": "TGI", "setting": "786-0 renal", "value": 3340, "unit": "nM"}, {"measurement": "GI50", "setting": "OVCAR-8 ovarian", "value": 2160, "unit": "nM"}, {"measurement": "TGI", "setting": "OVCAR-8 ovarian", "value": 4810, "unit": "nM"}, {"measurement": "GI50", "setting": "MCF7 breast", "value": 397, "unit": "nM"}, {"measurement": "TGI", "setting": "MCF7 breast", "value": 2790, "unit": "nM"}, {"measurement": "GI50", "setting": "SW-620 colon", "value": 1790, "unit": "nM"}, {"measurement": "TGI", "setting": "SW-620 colon", "value": 3740, "unit": "nM"}, {"measurement": "GI50", "setting": "SNB-19 CNS", "value": 2090, "unit": "nM"}, {"measurement": "TGI", "setting": "SNB-19 CNS", "value": 4750, "unit": "nM"}, {"measurement": "GI50", "setting": "MDA-MB-231 breast", "value": 820, "unit": "nM"}, {"measurement": "TGI", "setting": "MDA-MB-231 breast", "value": 2030, "unit": "nM"}, {"measurement": "GI50", "setting": "HCT-15 colon", "value": 2100, "unit": "nM"}, {"measurement": "TGI", "setting": "HCT-15 colon", "value": 4200, "unit": "nM"}, {"measurement": "GI50", "setting": "RPMI-8226 leukemia", "value": 2000, "unit": "nM"}, {"measurement": "TGI", "setting": "RPMI-8226 leukemia", "value": 7820, "unit": "nM"}, {"measurement": "GI50", "setting": "PC-3 prostate", "value": 1820, "unit": "nM"}, {"measurement": "TGI", "setting": "PC-3 prostate", "value": 4810, "unit": "nM"}, {"measurement": "GI50", "setting": "HOP-62 NSCLC", "value": 2240, "unit": "nM"}, {"measurement": "TGI", "setting": "HOP-62 NSCLC", "value": 4730, "unit": "nM"}, {"measurement": "GI50", "setting": "IGROV1 ovarian", "value": 1740, "unit": "nM"}, {"measurement": "TGI", "setting": "IGROV1 ovarian", "value": 3550, "unit": "nM"}, {"measurement": "GI50", "setting": "K-562 leukemia", "value": 2790, "unit": "nM"}, {"measurement": "TGI", "setting": "K-562 leukemia", "value": 33400, "unit": "nM"}, {"measurement": "GI50", "setting": "SR leukemia", "value": 2290, "unit": "nM"}, {"measurement": "TGI", "setting": "SR leukemia", "value": 7450, "unit": "nM"}, {"measurement": "GI50", "setting": "M14 melanoma", "value": 2000, "unit": "nM"}, {"measurement": "TGI", "setting": "M14 melanoma", "value": 4130, "unit": "nM"}, {"measurement": "GI50", "setting": "NCI-H522 lung", "value": 2010, "unit": "nM"}, {"measurement": "TGI", "setting": "NCI-H522 lung", "value": 4020, "unit": "nM"}, {"measurement": "GI50", "setting": "SK-OV-3 ovarian", "value": 4850, "unit": "nM"}, {"measurement": "TGI", "setting": "SK-OV-3 ovarian", "value": 16200, "unit": "nM"}]}
